Data on 7 molecules can be found in patent US5981499A, “Lesion-directed antibiotics in dry dosage forms for the treatment of shallow ulcers of the oral mucosa” (Atlantic Biomed Corporation, priority 1998, dated 1999).

Structures can show the parent of a compound that is named as a salt. Where two headings read alike, the source gives them in different places.

For one data set, the system named is aphthous ulcers. As to conditions: background, cited from earlier work; for efficacy of prior treatment: aphthous ulcers/stomatitis.
Data set [1] deals with Staphylococcus aureus (ATCC 29213). As to conditions: ATCC 29213, known range; cited from earlier work.
The test system of data set [2] is Patients with aphthous ulcers. Nature of the data set: Topical treatment of patients with aphthous ulcers. Type of data set: in vivo, human. The protocol: Patients with aphthous ulcers were advised to brush their teeth to rid them of food residues, and to rinse their mouths with water prior to initiating treatment.
One penicillin/magnesium stearate troche was placed in the patients' mouths directly over the ulcerated lesion. The troche was dissolved or disintegrated in a minimum amount of saliva directly over the ulcer in no more than 15 minutes, preferably in about 8 to about 12 minutes. The patients were advised to keep the ingredients of the disintegrated troche at the site of the lesion as long as possible. Food and beverages were avoided for one hour after each treatment. If multiple aphthous ulcers were present, one troche was required for the treatment of each ulcer. The topical treatments were conducted 4 times daily, for example, after breakfast, after lunch, after dinner and before bed time for no more than 4 days. […] The burning sensation lessened with subsequent applications.
For instance, the first sign of healing is usually the fading of the hyperemic zone at the periphery of the ulcer and the lessening of edema at the base of the ulcer. The membrane covering the ulcer becomes thinner, more translucent, more pearly white instead of a grayish-yellowish white prior to the application and contract with the troche. […]

For data set [3] the following is noted: single intravenous injection of penicillin G, usually 500 mg; cited from earlier work.
Data set [4] in a line: Local peak and one-hour trough antibiotic concentration in loculated saliva at the site of the troche (microbiological dilution assay). Type of data set: in vivo, human. The note with it: 50 mg troche; for local trough concentration of penicillin in saliva: end of one-hour duration.
The test system of data set [5] is Staphylococcus aureus (ATCC 29213). Nature of the data set: Minimum inhibitory concentration against the standard strain by serial two-fold dilution in nutrient broth. In kind it is cell-based. The protocol: For determination of the peak concentration, 1 ml of the bacteria-free filtrate was further diluted with 9 ml of nutrient broth to achieve a 1:10,000 dilution of the saliva. Then a serial two-fold dilution was made of this 1:10,000 diluted saliva sample with an equal volume of nutrient broth in a roll of test tubes to obtain a series of 1 ml aliquots of nutrient broth in which the saliva was diluted to 20,000, 40,000, 80,000, 160,000, 320,000, 640,000, 1,280,000 and 2,560,000 folds respectively. […] Thus the final dilutions of the saliva sample were in the range of 40,000 to 5,120,000 folds.
As control standards, a series of test tubes containing 1 ml of nutrient broth with varying concentrations of penicillin G potassium salt ranging from 0.1 units to 10 units/ml were similarly mixed with an equal volume of nutrient broth freshly inoculated with the standard tubes of Staphylococcus aureus. Both the test and control standard tubes were incubated at 37° C. for 18 hours. Among the test tubes showing no gross evidence of bacterial growth, the one containing the highest dilution of saliva and the one containing the least amount of penicillin G were considered as having the identical concentration of penicillin, i.e. the MIC of the staphylococcus aureus.

In the next data set the test system is Gram-negative bacilli. As to conditions: cited from earlier work.
Data set [6] is described as follows: Concentration at the ulcer assuming the troche dissolves in 0.1 ml of saliva. As to conditions: assuming troche dissolved in 0.1 ml saliva. The protocol:
Application of the penicillin/magnesium stearate troches in the aforementioned manner created a supratherapeutic concentration of penicillin on the raw surface of the aphthous ulcer. Assuming that the troche is dissolved in 0.1 ml of saliva locally at the ulcer, the initial concentration of penicillin would reach up to 500 mg/ml, and that of magnesium stearate 10 mg/ml. Under the influence of this extraordinarily high concentration of penicillin G or penicillin V, most microorganisms of the normal flora cannot survive or continue to multiply, permitting tissue regeneration processes to occur under the protective barrier coating formed by the magnesium stearate.
When the oxytetracycline hydrochloride/magnesium stearate troches are applied in the manner described in Example 1, extraordinarily high concentrations of antibiotic were released on the raw surface of the treated ulcers. Assuming that the troche is dissolved in 0.1 ml of saliva, the peak concentration of oxytetracycline would be between about 400-800 mg/ml locally at the site of the ulcer, and that of magnesium stearate 10 mg/ml.

With `O=C1CCC(N2C(=O)c3ccccc3C2=O)C(=O)N1` (stereo not shown) [Thalidomide], in the data set with aphthous ulcers, the “efficacy of prior treatment” value is “effective in some HIV-infected patients” and the “adverse reactions of prior treatment” value was “teratogenic”.

Turning to `CC1(C)S[C@@H]2[C@H](NC(=O)Cc3ccccc3)C(=O)N2[C@H]1C(=O)O` [penicillin], in data set [1], the “known minimum inhibitory concentration (MIC) of the standard strain” value is listed as 0.25-2 units of penicillin/ml. Further, in the data set on aphthous ulcers, the “efficacy of prior treatment” value is given as “ineffective” and the “adverse reactions of prior treatment” value is reported as “likely to produce hypersensitivity”. Besides, the “adverse reactions of stomatitis or discoloration of the tongue” value in data set [2] (4 days of penicillin medication) is on record as “no observed adverse reactions”. Besides, in data set [2] (after 4 days), the “status of ulcer after 4 days of medication” value is “only remnants of a thin pearly whitish membrane remain, if any, covering an incompletely re-epithelialized newly healed ulcer”.

As to “aluminum subsalt of sucrose-8-sulfate [sucralfate]”, in the data set on aphthous ulcers, the “efficacy of prior treatment” value is given as “responded”.

Consider `CC1(C)S[C@@H]2[C@H](NC(=O)Cc3ccccc3)C(=O)N2[C@H]1C(=O)O` [penicillin G], for which, in data set [3], the “average peak blood level” value was “about 26 units/ml”. The “local trough concentration of penicillin in saliva” value in data set [4] is 4,000-64,000 units/ml; in data set [4] (60 min), 2.5 to 40 mg/mL. For the same molecule, the Cmax in data set [4] (human, in vivo, topical or ocular, at complete dissolution, read-out: initial peak local concentration of penicillin G in saliva) was found to be 500000 µg/mL. The “MIC of penicillin G for the standard strain of Staphylococcus aureus” value in data set [5] (three experiments, 37° C., 18 hours) turned out to be 1 unit/ml. Also, in the data set on Gram-negative bacilli (740 mcg/ml as cut-off MIC), the “susceptibility of many Gram-negative bacilli (Salmonella, Shigella, most Escherichia coli, all Proteus mirabilis, most Bacteroides strains)” value was “sensitive”. For the same molecule, the “susceptibility of Gram-negative bacilli” value with Gram-negative bacilli (at 16 mcg/ml) is recorded as “resistant”.

In the case of `CCCCCCCCCCCCCCCCCC(=O)O` [magnesium stearate], the “concentration of magnesium stearate at the ulcer” value in data set [6] was 10000 µg/mL.

Turning to `CN(C)[C@@H]1C(=O)C(C(N)=O)=C(O)[C@@]2(O)C(=O)C3=C(O)c4c(O)cccc4[C@@](C)(O)[C@H]3[C@H](O)[C@@H]12` [oxytetracycline hydrochloride, Oxytetracycline hydrochloride], the “initial/peak concentration of antibiotic at the ulcer” value in data set [6] lay within 400 to 800 mg/mL. The “one-hour trough concentration of oxytetracycline hydrochloride in saliva” value in data set [4] (two subjects, 60 min) was 8 mg/mL. In data set [4] (human, in vivo, topical or ocular, 50 mg, two subjects, read-out: initial peak concentration of oxytetracycline hydrochloride in saliva), the Cmax is 400000 µg/mL. In data set [4] (human, in vivo, topical or ocular, two subjects, read-out: one-hour trough concentration of oxytetracycline hydrochloride in saliva), the concentration at 1 h came out at 8000 µg/mL. The MIC in data set [5] (Staphylococcus aureus, ATCC29213, ATCC 29213, read-out: sensitivity to oxytetracycline hydrochloride, MIC) is 1 µg/mL.

For the molecule `O=S(=O)([O-])[O-].[Zn+2]` [zinc sulfate], in the data set on aphthous ulcers, the “efficacy of prior treatment” value is listed as “responded”.
